Active and inactive are the calls of the source. No rule for the calls is given here.
Biological target: Hepatocyte nuclear factor 4-alpha (Homo sapiens) (UniProt P41235)
Test: HNF4 dimerization inhibitors, dose response, counter-screen for ABHD5-PLIN5 interaction inhibitor project, biochemical, luminescence, round 2 (AID 652123)
Settings: HNF4 dimerization biochemical luminescence assay

Sequence of Hepatocyte nuclear factor 4-alpha (Homo sapiens) (P41235 whole entry, looked up): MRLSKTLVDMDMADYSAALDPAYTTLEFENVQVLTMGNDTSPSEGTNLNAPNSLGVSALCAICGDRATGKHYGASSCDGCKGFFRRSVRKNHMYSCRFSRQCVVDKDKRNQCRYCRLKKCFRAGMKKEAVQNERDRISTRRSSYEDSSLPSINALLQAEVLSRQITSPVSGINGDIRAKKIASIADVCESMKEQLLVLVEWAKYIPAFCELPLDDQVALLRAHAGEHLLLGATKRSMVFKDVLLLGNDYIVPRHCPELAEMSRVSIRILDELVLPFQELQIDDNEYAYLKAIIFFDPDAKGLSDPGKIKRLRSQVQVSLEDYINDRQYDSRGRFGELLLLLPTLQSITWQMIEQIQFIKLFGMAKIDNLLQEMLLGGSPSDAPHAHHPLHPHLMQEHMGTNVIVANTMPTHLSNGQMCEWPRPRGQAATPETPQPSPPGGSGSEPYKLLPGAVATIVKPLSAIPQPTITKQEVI

| IC50 | SMILES |
| --- | --- |
| inactive | O=C(Cc1ccc2c(c1)CCCC2)N1CCN(S(=O)(=O)c2ccc3c(c2)OCCO3)CC1 |
| > 39.8 µM (inactive) | CN(C)CCCN(C(=O)C1CCCCC1)c1nc2cc(Br)ccc2s1 |
| > 39.8 µM (inactive) | CCCCCCNC(=O)Nc1ccc2c(c1)Sc1ccccc1C(=O)N2C |
| > 39.8 µM (inactive) | CCCNC(=O)Nc1ccc2c(c1)N(CC)C(=O)c1ccccc1S2 |
| 5.66 µM | CCCS(=O)(=O)c1ccc(Cl)c(C(=O)Nc2ccc(C(=O)OCC)cc2)c1 |
| > 39.8 µM (inactive) | CCCC(=O)Nc1ccc2c(c1)C(=O)N(C)c1cc(C)ccc1O2 |
| > 39.8 µM (inactive) | Cc1ccc(CS(=O)(=O)c2ncc(Cl)c(C(=O)Nc3nnc(C(C)C)s3)n2)cc1 |
| 4.01 µM | CCS(=O)(=O)c1ncc(Cl)c(C(=O)Nc2ccc(C)cc2)n1 |
| > 39.8 µM (inactive) | CN1C(=O)c2ccccc2Oc2ccc(NC(=O)c3cccs3)cc21 |
| > 39.8 µM (inactive) | CN1C(=O)c2ccccc2Oc2ccc(NC(=O)c3cc4ccccc4[nH]3)cc21 |
| 2.17 µM | Cc1ccc(CS(=O)(=O)c2ncc(Cl)c(C(=O)N3CCN(C)CC3)n2)cc1 |
| > 39.8 µM (inactive) | CN(C)CCCN(C(=O)CCc1ccccc1)c1nc2ccc(Cl)cc2s1 |
| 5.08 µM | CCS(=O)(=O)c1ncc(Cl)c(C(=O)Nc2ccc(S(N)(=O)=O)cc2)n1 |
| > 39.8 µM (inactive) | CCCC(=O)Nc1ccc2c(c1)C(=O)N(C)c1ccccc1O2 |
| 1.94 µM | COc1ccc(CCNC(=O)c2nc(S(=O)(=O)Cc3ccc(F)cc3)ncc2Cl)cc1OC |
| 2.79 µM | Cc1ccc(CS(=O)(=O)c2ncc(Cl)c(C(=O)Nc3cccc4ccccc34)n2)cc1 |
| > 39.8 µM (inactive) | Cc1ccc2c(CC(=O)N3CCN(S(=O)(=O)c4ccc5c(c4)OCCCO5)CC3)coc2c1C |
| 1.38 µM | CN(C(=O)c1nc(S(C)(=O)=O)ncc1Cl)c1ccccc1 |
| 3.81 µM | NS(=O)(=O)c1ccc(NC(=O)c2nc(S(=O)(=O)Cc3ccccc3)ncc2Cl)cc1 |
| 1.35 µM | O=C(c1nc(S(=O)(=O)Cc2ccccc2)ncc1Cl)N(Cc1ccccc1)Cc1ccco1 |

| IC50 | SMILES |
| --- | --- |
| > 39.8 µM (inactive) | CCCC(=O)N(CCCN1CCOCC1)c1nc2ccc(Cl)cc2s1 |
| 4.99 µM | CCCS(=O)(=O)c1ncc(Cl)c(C(=O)Nc2ccc(C(=O)OC)cc2)n1 |
| > 39.8 µM (inactive) | CC(NC(=O)CN1CCN(S(=O)(=O)c2ccc3c(c2)OCCCO3)CC1)c1cc2ccccc2o1 (centres undefined) |
| 1.15 µM | CS(=O)(=O)c1ncc(Cl)c(C(=O)Nc2ccc(C(F)(F)F)cc2)n1 |
| 3.09 µM | Cc1ccc(CS(=O)(=O)c2ncc(Cl)c(C(=O)Nc3cccc(C(F)(F)F)c3)n2)cc1 |
| > 39.8 µM (inactive) | CN(C)CCCN(C(=O)c1cc2ccccc2oc1=O)c1nc2ccc(Cl)cc2s1 |
| > 39.8 µM (inactive) | COc1ccc(CC(=O)N2CCCN(S(=O)(=O)c3ccc(C)cc3)CC2)cc1OC |
| > 39.8 µM (inactive) | O=C(Cc1cccc(F)c1)N1CCN(S(=O)(=O)c2ccc3c(c2)OCCO3)CC1 |
| 1.87 µM | Cc1ccc(CS(=O)(=O)c2ncc(Cl)c(C(=O)NCc3ccc4c(c3)OCO4)n2)cc1 |
| > 39.8 µM (inactive) | CN1C(=O)c2ccccc2Sc2ccc(NC(=O)NCCCc3ccccc3)cc21 |
| > 39.8 µM (inactive) | CC(C)N1C(=O)c2ccccc2Oc2ccc(NC(=O)c3ccccc3)cc21 |
| 2.44 µM | Cc1ccc(NC(=O)c2nc(S(C)(=O)=O)ncc2Cl)cc1 |
| > 39.8 µM (inactive) | CN(C)CCCN(C(=O)Cc1ccc(F)cc1)c1nc2ccc(Cl)cc2s1 |
| > 39.8 µM (inactive) | CN(C)CCCN(C(=O)C1CCCCC1)c1nc2cc(Cl)ccc2s1 |
| > 39.8 µM (inactive) | CN1C(=O)c2ccccc2Sc2ccc(NC(=O)NCCc3ccccc3)cc21 |
| > 39.8 µM (inactive) | CN1C(=O)c2ccccc2Sc2ccc(NC(=O)NCCc3cccs3)cc21 |
| > 39.8 µM (inactive) | CCCCCNC(=O)Nc1ccc2c(c1)Sc1ccccc1C(=O)N2C |
| > 39.8 µM (inactive) | CCCCCCCNC(=O)Nc1ccc2c(c1)Sc1ccccc1C(=O)N2C |
| 2.42 µM | O=C(Nc1ccc2ccccc2c1)c1nc(S(=O)(=O)Cc2ccccc2)ncc1Cl |
